Measured values as given in ChEMBL document CHEMBL1201862, “PubChem BioAssay data set” (2004).
Calls of active or inactive are those of the source. Rule as the data show it, for most assays here: actives have a measured EC50 and inactives only a lower limit.

Experiments:
[1] = inhibitors of firefly luciferase expression or activity, dose response, H4 neuroglioma cells, luminescence (AID 1990); type: functional, cell-based
[2] = Luminescence Cell-Based Dose Response HTS to Identify Inhibitors of 5'UTR Stem-Loop Driven Prion Protein mRNA Translation in H4 Neuroglioblastoma Cells. [Related pubchem assays: 1827 (Project Summary), 1813 (Primary HTS)]; type: functional
[3] = inhibitors of SNCA 5'UTR-driven reporter translation, confirmation, H4 neuroglioma cells, luminescence (AID 1988); type: functional, cell-based
[4] = Shn3 3'UTR reporter inhibitors, dose response, cell-based, Clone20 osteoblasts, firefly luciferase, cherry-picked (AID 624132); type: functional;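 also: firefly luciferase luminescence from reporter carrying the Shn3 3'UTR in osteoblasts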
[5] = HepG2 cell cytotoxicity, dose response, cytotoxicity control for Shn3 inhibitor project, CellTiter-Glo, cherry-picked (AID 624134); type: functional, cell-based
[6] = target: T1, Heat shock factor protein 1 (Mus musculus, UniProt P38532); experiment: inhibition of MG132-induced HSE-luciferase signal, confirmation, cell-based, NIH3T3, luminescence, dose retest (AID 2382); type: functional;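 also: NIH3T3 fibroblasts with HSF1-driven luciferase reporter stressed by proteasome inhibitor MG132; luminescence from HSF1-driven luciferase expression after 8 hours of MG132 stress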
T1 sequence (P38532 whole entry): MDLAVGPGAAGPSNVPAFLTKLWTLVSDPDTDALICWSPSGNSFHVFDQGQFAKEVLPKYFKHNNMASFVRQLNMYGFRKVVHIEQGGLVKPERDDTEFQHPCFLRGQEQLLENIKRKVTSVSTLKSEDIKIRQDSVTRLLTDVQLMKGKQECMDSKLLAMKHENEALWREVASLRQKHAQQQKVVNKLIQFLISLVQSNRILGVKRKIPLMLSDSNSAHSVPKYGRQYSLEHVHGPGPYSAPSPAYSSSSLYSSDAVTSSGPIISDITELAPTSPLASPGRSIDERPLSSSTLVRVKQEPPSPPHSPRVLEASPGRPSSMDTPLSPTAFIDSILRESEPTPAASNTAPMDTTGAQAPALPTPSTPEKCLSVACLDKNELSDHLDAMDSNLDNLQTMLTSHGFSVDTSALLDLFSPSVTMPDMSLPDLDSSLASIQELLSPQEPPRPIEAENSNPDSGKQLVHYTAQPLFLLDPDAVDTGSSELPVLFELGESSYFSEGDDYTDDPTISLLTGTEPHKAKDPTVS

[7] = cells; type: functional, cell-based
[8] = cells; type: functional, cell-based; remark: listed apart in the source
[9] = HEp-2 cell cytotoxicity, dose response, cytotoxicity control for RSV inhibitor project, HTS (AID 2410); type: functional; conditions: human respiratory syncytial virus
[10] = system: INS1; experiment: beta cell apoptosis inhibitors, cytokine rescue, dose response, luminescence, retest (AID 449756); type: functional, cell-based; conditions: Rattus norvegicus, INS1;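 also: cell death triggered by IL-1 beta plus TNF-alpha plus IFN-gamma mixture; protective hits raise ATP signal compared with cytokine alone wells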
[11] = target: Cytochrome P450 2C9 (Homo sapiens, UniProt P11712)
[12] = target: T2, Streptokinase A (Streptococcus pyogenes serotype M1, UniProt P10520); experiment: S. pyogenes streptokinase expression inhibitors, potency, dose response, plasminogen activation absorbance, OD405 (AID 1914); type: functional, Streptococcus pyogenes M1 GAS;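 also: secreted streptokinase activity via plasminogen activation per viability signal from cell pellet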
T2 sequence (P10520 whole entry): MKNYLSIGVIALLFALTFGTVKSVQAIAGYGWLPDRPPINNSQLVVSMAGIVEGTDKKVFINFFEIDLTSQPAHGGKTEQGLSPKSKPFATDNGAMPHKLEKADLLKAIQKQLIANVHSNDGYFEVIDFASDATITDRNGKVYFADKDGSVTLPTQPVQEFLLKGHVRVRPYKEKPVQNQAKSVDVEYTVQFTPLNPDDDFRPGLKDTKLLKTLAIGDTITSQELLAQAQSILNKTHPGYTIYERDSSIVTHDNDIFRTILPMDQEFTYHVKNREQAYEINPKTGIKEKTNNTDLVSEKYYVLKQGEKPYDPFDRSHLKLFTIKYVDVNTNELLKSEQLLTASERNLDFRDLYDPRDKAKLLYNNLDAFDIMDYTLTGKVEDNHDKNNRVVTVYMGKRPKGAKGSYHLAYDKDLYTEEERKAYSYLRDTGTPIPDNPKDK

[13] = system: Streptococcus; experiment: Group A Streptococcus viability loss, dose response, counter-screen for streptokinase expression inhibitor project, luminescence, BacTiterGlo (AID 1915); type: functional, organism-based;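 also: potency for reduction of bacterial viability or growth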
[14] = control 3'UTR Renilla luciferase suppression, dose response, counter-screen for Shn3 inhibitor project, cell-based, Clone20-Shn3RL, cherry-picked (AID 624133); type: functional

Cytochrome P450 2C9, sequence (P11712 whole entry): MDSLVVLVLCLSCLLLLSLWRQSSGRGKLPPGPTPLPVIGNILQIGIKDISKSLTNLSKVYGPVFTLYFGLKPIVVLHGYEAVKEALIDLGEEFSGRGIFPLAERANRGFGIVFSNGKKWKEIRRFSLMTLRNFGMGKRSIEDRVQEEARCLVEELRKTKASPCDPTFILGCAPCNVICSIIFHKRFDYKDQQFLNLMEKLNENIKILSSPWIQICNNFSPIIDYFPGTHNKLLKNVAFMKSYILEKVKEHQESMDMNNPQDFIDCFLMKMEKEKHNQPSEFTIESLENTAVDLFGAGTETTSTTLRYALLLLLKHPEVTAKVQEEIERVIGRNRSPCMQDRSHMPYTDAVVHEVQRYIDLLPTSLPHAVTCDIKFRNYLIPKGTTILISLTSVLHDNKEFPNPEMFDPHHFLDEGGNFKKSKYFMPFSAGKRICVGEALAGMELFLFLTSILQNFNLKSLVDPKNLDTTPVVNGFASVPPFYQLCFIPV

Cc1ccc(S(=O)(=O)c2cc3c(=O)n4cccc(C)c4nc3n(Cc3ccncc3)c2=N)cc1
EC50 [1]: > 120 µM (not active) | EC50 [2]: > 120 µM (not active) | EC50 [3]: > 120 µM (not active)

O=C(Nc1ccc(Cl)c(Cl)c1)c1cccc(S(=O)(=O)NCc2cccnc2)c1
AC50 [4]: 5.39 µM (active) | AC50 [5]: 6.59 µM (active)

O=C(COC(=O)Cc1ccsc1)NCC12CC3CC(CC(C3)C1)C2
EC50 [6]: > 195 µM (not active)

CCn1nc(NS(=O)(=O)c2ccc(NC(C)=O)cc2)c2cc3cccc(C)c3nc21
EC50 [7]: > 350 µM (not active) | EC50 [8]: > 350 µM (not active)

Cc1cccc2sc(NC(=O)C3CSC4(C)CCC(=O)N34)nc12 (stereo unspecified)
EC50 [1]: > 120 µM (not active) | EC50 [2]: > 120 µM (not active) | EC50 [3]: > 120 µM (not active)

Cc1ccc(S(=O)(=O)N(C)C)cc1NC(=O)COC(=O)/C(=C/c1ccc(F)cc1)c1cccs1
CC50 [9]: 29.7 µM (active)

O=C(Nc1ccccn1)C1CCN(c2ncnc3c2nc2n3CCCCC2)CC1
CC50 [9]: 18.5 µM (active)

CN(C)c1ccc(S(=O)(=O)NCC(=O)OCC(=O)Nc2cc(Cl)cc(Cl)c2)cc1[N+](=O)[O-]
EC50 [7]: > 350 µM (not active) | EC50 [8]: > 350 µM (not active)

Cc1ccc(/C=C/C2=NN(Cc3ccccc3)C(=O)CC2)cc1
CC50 [9]: 15 µM (active)

CC(=O)Nc1ccc(CN2CCC(CO)(CCOc3ccccc3)CC2)cc1
EC50 [6]: > 195 µM (not active)

Cc1cccc2[nH]c(CN(C)C(=O)C3CCC(=O)N(C4CC4)C3)nc12 (stereo unspecified)
EC50 [7]: > 350 µM (not active) | EC50 [8]: > 350 µM (not active)

CC(=O)c1cccc(NS(=O)(=O)c2ccc(N/C=C/C(=O)c3ccc(F)cc3)cc2)c1
AC50 [10]: 4.36 µM (active)

COc1ccccc1NC(=O)CN(C)S(=O)(=O)c1cccc2cccnc12
EC50 [7]: > 350 µM (not active) | EC50 [8]: > 350 µM (not active)

CCN(CC)C(=O)c1cc2cc([N+](=O)[O-])ccc2s1
EC50 [6]: > 195 µM (not active) | AC50 [11]: 17.8 µM (inconclusive)

CC(C)(C)c1csc(NNC(=O)c2ccc(Br)cc2)n1
EC50 [7]: 21 µM (active) | EC50 [12]: > 150 µM (not active) | EC50 [8]: > 350 µM (not active) | EC50 [13]: > 150 µM (not active)

COc1cccc(N2CCN(CC(=O)Nc3ccc(SC(F)F)cc3)CC2)c1
EC50 [1]: > 120 µM (not active) | EC50 [2]: > 120 µM (not active) | EC50 [3]: > 120 µM (not active)

Cc1ccc(F)cc1NC(=O)CSc1nc(Nc2ccccc2)nc(N2CCOCC2)n1
EC50 [1]: 14.8 µM (active) | EC50 [2]: > 120 µM (not active) | EC50 [3]: 15.6 µM (active)

Cc1ccccc1OCC(=O)Nc1ccc(N2CCN(C)CC2)c(Cl)c1
EC50 [7]: > 350 µM (not active) | EC50 [8]: > 350 µM (not active)

CC(=O)c1cccc(Nc2nc(-c3ccccc3)cs2)c1
CC50 [9]: 21.2 µM (active)

OCc1nn2c(c1Br)NC(c1ccccc1)CC2C(F)(F)F (stereo unspecified)
EC50 [6]: > 195 µM (not active)

COc1cccc(C(=O)CN2C(=O)C(C)(C)Oc3ccc(C(=O)N4CCOCC4)cc32)c1
EC50 [7]: > 350 µM (not active) | EC50 [8]: > 350 µM (not active)

CCOc1cc2sc(N3CCC(C(=O)NCCCN4CCCC4=O)CC3)nc2cc1Br
CC50 [9]: 19.8 µM (active)

COc1ccc(C2(C)NC(=O)N(CC(=O)Nc3ccc4c(c3)OCO4)C2=O)cc1OC (stereo unspecified)
EC50 [1]: > 120 µM (not active) | EC50 [2]: > 120 µM (not active) | EC50 [3]: > 120 µM (not active)

CCc1noc(C)c1C(=O)Oc1ccc(N(C)S(=O)(=O)c2ccccc2)cc1
CC50 [9]: 26.2 µM (active)

O=C1C=C(c2ccnc3cc(Cl)ccc23)C[C@@H](c2ccc3c(c2)OCO3)C1
AC50 [4]: 1.36 µM (active) | AC50 [5]: 27.6 µM (active) | AC50 [14]: 0.312 µM (active)

CCOC(=O)c1oc2ccccc2c1NC(=O)CN1CCN(C)CC1
EC50 [1]: 10.9 µM (active) | EC50 [2]: 17.6 µM (active) | EC50 [3]: 7 µM (active)
